Data taken from ChEMBL document CHEMBL1201862, “PubChem BioAssay data set” (2004).
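Test compounds were applied to cells in 96-well plates for 48 hours at 5 doses. GI50 is the concentration that inhibits growth by half.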 The source made the active and inactive calls. Rule as the data show it: active = GI50 up to about 1.1 µM and inactive = higher.

Tests used:
Test in all cases: inhibition of tumour cell growth, NCI panel, 48 h
COLO 205 = test system: COLO 205
KM12 = test system: KM12
HCC 2998 = test system: HCC 2998
SK-OV-3 = test system: SK-OV-3
UACC-62 = test system: UACC-62
LOX IMVI = test system: LOX IMVI
CCRF-CEM = test system: CCRF-CEM
SNB-19 = test system: SNB-19
CAKI-1 = test system: CAKI-1
SR = test system: SR
A549 = test system: A549
SN12C = test system: SN12C
HOP-62 = test system: HOP-62
NCI-H23 = test system: NCI-H23
EKVX = test system: EKVX
SK-MEL-28 = test system: SK-MEL-28

Measured: GI50

O=C(O)c1ccc([N+](=O)[O-])c2c(=O)c3ccccc3[nH]c12
inactive: COLO 205 > 100 µM | KM12 > 100 µM | HCC 2998 > 100 µM | SK-OV-3 > 100 µM | UACC-62 > 100 µM | LOX IMVI > 100 µM | CCRF-CEM > 100 µM | SNB-19 > 100 µM | CAKI-1 > 100 µM | SR > 100 µM | A549 > 100 µM | SN12C > 100 µM | HOP-62 > 100 µM

CN(CC(=O)O)S(=O)(=O)c1ccc(F)cc1
inactive: COLO 205 > 100 µM | KM12 > 100 µM | HCC 2998 > 100 µM | SK-OV-3 > 100 µM | UACC-62 > 100 µM | LOX IMVI > 100 µM | NCI-H23 > 100 µM | CCRF-CEM > 100 µM | SNB-19 > 100 µM | CAKI-1 > 100 µM | EKVX > 100 µM | A549 > 100 µM | SK-MEL-28 > 100 µM | SN12C > 100 µM

O/N=C(\c1nc2ccc(Cl)cc2nc1O)C(O)c1ccc(Cl)cc1Cl (stereo not drawn)
inactive: COLO 205 > 100 µM | KM12 > 100 µM | HCC 2998 > 100 µM | SK-OV-3 > 100 µM | UACC-62 > 100 µM | LOX IMVI > 100 µM | NCI-H23 > 100 µM | CCRF-CEM > 100 µM | SNB-19 > 100 µM | CAKI-1 > 100 µM | SR > 100 µM | A549 > 100 µM | SK-MEL-28 > 100 µM | SN12C > 100 µM | HOP-62 > 100 µM

CCCCN1C(=O)C2c3[nH]c4ccccc4c3C3CCCCC3C2C1=O.CCCCN1C(=O)C2c3[nH]c4ccccc4c3[C@@H]3CCCCC3C2C1=O (stereo not drawn)
inactive: COLO 205 26.7 µM | HCC 2998 8.85 µM | SK-OV-3 22.3 µM | UACC-62 19.1 µM | LOX IMVI 10.9 µM | NCI-H23 16 µM | CCRF-CEM 16.4 µM | SNB-19 23.4 µM | CAKI-1 6.18 µM | EKVX 21.4 µM | A549 13.9 µM | SK-MEL-28 29.6 µM | SN12C 35.9 µM | HOP-62 6.4 µM

COc1cc(C2C(C(=O)Nc3cc(F)c(F)cc3F)=C(C)NC(C)=C2C(=O)Nc2cc(F)c(F)cc2F)ccc1O
inactive: COLO 205 30.9 µM | KM12 13.3 µM | HCC 2998 13.9 µM | LOX IMVI 15.2 µM | NCI-H23 17.1 µM | CCRF-CEM 14 µM | SNB-19 29.2 µM | CAKI-1 12.3 µM | EKVX 14.9 µM | A549 24.6 µM | SK-MEL-28 25.4 µM | SN12C 17.7 µM | HOP-62 12.8 µM

COc1ccc(/C=[N+](\[O-])[C@H](COCc2ccccc2)c2ccccc2)cc1
inactive: COLO 205 84.3 µM | KM12 89.1 µM | HCC 2998 > 100 µM | SK-OV-3 > 100 µM | LOX IMVI 89.9 µM | NCI-H23 > 100 µM | CCRF-CEM 35.7 µM | SNB-19 46.7 µM | EKVX 30.1 µM | A549 > 10 µM | SK-MEL-28 38 µM | HOP-62 > 100 µM

COCC(O)CN1C(N)=NC(O)C1O (stereo not drawn)
inactive: COLO 205 > 100 µM | KM12 > 100 µM | HCC 2998 > 100 µM | LOX IMVI > 100 µM | NCI-H23 > 100 µM | SNB-19 > 100 µM | CAKI-1 > 100 µM | SR > 100 µM | EKVX > 100 µM | A549 > 100 µM | SK-MEL-28 > 100 µM | SN12C > 100 µM | HOP-62 > 100 µM

O=c1cccccc1NCCCNc1cccccc1=O
inactive: COLO 205 > 100 µM | KM12 > 100 µM | SK-OV-3 > 100 µM | UACC-62 > 100 µM | LOX IMVI > 100 µM | NCI-H23 > 100 µM | CCRF-CEM > 100 µM | SNB-19 > 100 µM | CAKI-1 > 100 µM | SR > 100 µM | EKVX > 100 µM | A549 > 100 µM | SN12C 15.9 µM | HOP-62 > 100 µM

COc1ccc(-c2cc(=O)c3ccccc3o2)cc1N
inactive: COLO 205 33.4 µM | KM12 29.3 µM | HCC 2998 38 µM | SK-OV-3 > 100 µM | UACC-62 25.8 µM | LOX IMVI 34.6 µM | NCI-H23 38.5 µM | CCRF-CEM 28.6 µM | SNB-19 60.4 µM | CAKI-1 18.7 µM | EKVX 16.4 µM | A549 49.9 µM | SK-MEL-28 57.8 µM | SN12C 84.7 µM | HOP-62 20.5 µM

CCc1ccccc1NC(=O)/C(CC(=O)c1c(C)[n+]([O-])c2ccccc2[n+]1[O-])=N\NS(=O)(=O)c1ccc(C)cc1
inactive: COLO 205 36.8 µM | KM12 36.9 µM | HCC 2998 47.1 µM | SK-OV-3 > 100 µM | UACC-62 18.9 µM | NCI-H23 35.2 µM | CCRF-CEM 16.7 µM | SNB-19 > 100 µM | SR 16.6 µM | EKVX 46 µM | A549 34.9 µM | SK-MEL-28 47.9 µM | SN12C 28.8 µM | HOP-62 > 100 µM

CC(=O)OC(=O)O/C=C\CCl
inactive: COLO 205 > 100 µM | KM12 > 100 µM | HCC 2998 > 100 µM | SK-OV-3 > 100 µM | UACC-62 > 100 µM | CCRF-CEM 93.8 µM | SNB-19 > 100 µM | CAKI-1 > 100 µM | SR 42 µM | A549 > 100 µM | SK-MEL-28 > 100 µM | SN12C > 100 µM | HOP-62 > 100 µM

O=C1OC(c2ccccc2)C2CC3CC4(CCC3CN12)OCCO4 (stereo not drawn)
inactive: COLO 205 > 100 µM | KM12 > 100 µM | SK-OV-3 > 100 µM | UACC-62 21.5 µM | LOX IMVI > 100 µM | NCI-H23 36.9 µM | CCRF-CEM > 100 µM | SNB-19 > 100 µM | CAKI-1 > 100 µM | SR > 100 µM | EKVX > 100 µM | A549 > 100 µM | SK-MEL-28 > 100 µM | SN12C > 100 µM | HOP-62 > 100 µM

C[n+]1cccc(NC(=O)c2ccc(NC(=O)C34CCC(C(=O)Nc5ccc(C(=O)Nc6ccc[n+](C)c6)cc5)(CC3)CC4)cc2)c1
inactive: COLO 205 > 10 µM | KM12 1.92 µM | UACC-62 > 100 µM | LOX IMVI 38.5 µM | NCI-H23 56.5 µM | CCRF-CEM 15.2 µM | SNB-19 24.9 µM | SR 21.3 µM | EKVX 26.9 µM | A549 22.5 µM | SK-MEL-28 42.2 µM | SN12C 3.23 µM | HOP-62 25.5 µM

Cc1ccc(NC(=O)c2cccc([N+](=O)[O-])c2O)c([N+](=O)[O-])c1
inactive: COLO 205 19.9 µM | KM12 10.6 µM | HCC 2998 15.9 µM | SK-OV-3 26.9 µM | UACC-62 12 µM | LOX IMVI 11.5 µM | NCI-H23 13.6 µM | CCRF-CEM > 100 µM | SNB-19 22.4 µM | CAKI-1 29.5 µM | EKVX 23.2 µM | A549 21.6 µM | SK-MEL-28 16.7 µM | SN12C 16.5 µM | HOP-62 20.5 µM
